{"source": "paper PMC11859184", "about": "“Synthesis and Evaluation of ^68Ga- and ^177Lu-Labeled [diF-Pro^14]Bombesin(6−14) Analogs for Detection and Radioligand Therapy of Gastrin-Releasing Peptide Receptor-Expressing Cancer” (Pharmaceuticals, 2025)", "test": "Ex vivo biodistribution of 177Lu-labeled ligands in PC-3 tumor-bearing mice", "conditions": "mouse, intravenous; for tissue uptake at 72 h: 72 h pi; for tissue uptake at 120 h: 120 h pi; for tissue uptake at 1 h: 1 h pi; for tissue uptake at 4 h: 4 h pi; for tissue uptake at 24 h: 24 h pi", "protocol": "SPECT/CT imaging was conducted using an MI Labs (Houten, The Netherlands) U-SPECT-II/CT scanner with a custom-made ultra-high sensitivity big mouse collimator (2 mm pinhole size) following published procedure. The experiments were obtained in accordance with the same protocol established in the PET/CT imaging and ex vivo biodistributions section. The mice were used for SPECT/CT imaging and ex vivo biodistributions studies once the tumors reached a diameter of 5–8 mm. PC-3 tumor-bearing mice were sedated (2.5% isoflurane in O2) and injected with 31.4–36.9 MBq of the ^177Lu-labeled ligand through a lateral caudal tail vein. The mouse was imaged at 1, 4, 24, 72, and 120 h pi. At each time point, a 5 min CT scan was performed with 615 μA and 60 kV parameters for localization and attenuation, followed by two 30 min static SPECT scans in list mode with an energy window centered around 208 keV. The U-SPECT II software was used to reconstruct data, and the images were decay corrected to the time of injection with PMOD v 3.402 (PMOD Technologies GmbH, Fallanden, Switzerland).\nFor ex vivo biodistribution studies, the mice were injected with ~3–5 MBq of the ^177Lu-labeled ligand (n = 5). At 1, 4, 24, 72, and 120 h post-injection, the mice were anesthetized with 2% isoflurane, euthanized by CO2 inhalation, and the tissues/organs of interest were […] for radioactivity counting. The blocking study was performed at 1 h pi via co-injection of the ^177Lu-labeled ligand with 100 μg of [D-Phe^6,Leu-NHEt^13,des-Met^14]Bombesin(6–14).", "key": {"[1]": {"conditions": "heart, n = 5, read-out: Heart uptake"}, "[2]": {"conditions": "kidneys, n = 5, read-out: Kidneys uptake"}, "[3]": {"conditions": "large intestine, n = 5, read-out: Large intestine uptake"}, "[4]": {"conditions": "liver, n = 5, read-out: Liver uptake"}, "[5]": {"conditions": "lungs, n = 5, read-out: Lungs uptake"}, "[6]": {"conditions": "muscle, n = 5, read-out: Muscle uptake"}, "[7]": {"conditions": "pancreas, n = 5, read-out: Pancreas uptake"}, "[8]": {"conditions": "small intestine, n = 5, read-out: Small intestine uptake"}, "[9]": {"conditions": "spleen, n = 5, read-out: Spleen uptake"}, "[10]": {"conditions": "stomach, n = 5, read-out: Stomach uptake"}, "[11]": {"conditions": "testes, n = 5, read-out: Testes uptake"}}, "note": "Where two headings read alike, the source gives them in different places.", "data": [{"smiles": "CC(C)C[C@H](NC(=O)[C@H](Cc1cnc[nH]1)N(C)C(=O)CNC(=O)[C@@H](NC(=O)[C@H](C)NC(=O)[C@H](Cc1c[nH]c2ccccc12)NC(=O)[C@H](CCC(N)=O)NC(=O)[C@@H](Cc1ccccc1)NC(=O)CN1CCC(NC(=O)CN2CCN(CC(=O)O)CCN(CC(=O)O)CCN(CC(=O)O)CC2)CC1)C(C)(C)C)C(=O)N1CC(F)(F)C[C@H]1C(N)=O", "note": "[[^177Lu]Lu-LW02060, metal not drawn]", "values": [{"measurement": "tissue uptake at 72 h", "setting": "[1]", "result": 0.01, "unit": "%ID/g"}, {"measurement": "tissue uptake at 120 h", "setting": "[1]", "result": 0.01, "unit": "%ID/g"}, {"measurement": "tissue uptake at 1 h", "setting": "kidneys, 100 ug, blocked (100 µg GRPR antagonist co-injected), read-out: Kidneys uptake", "result": "3.8 ± 0.85", "unit": "%ID/g"}, {"measurement": "tissue uptake at 1 h", "setting": "[2]", "result": "3.62 ± 0.86", "unit": "%ID/g"}, {"measurement": "tissue uptake at 4 h", "setting": "[2]", "result": "2.85 ± 0.29", "unit": "%ID/g"}, {"measurement": "tissue uptake at 24 h", "setting": "[2]", "result": "1.06 ± 0.22", "unit": "%ID/g"}, {"measurement": "tissue uptake at 72 h", "setting": "[2]", "result": "0.33 ± 0.03", "unit": "%ID/g"}, {"measurement": "tissue uptake at 120 h", "setting": "[2]", "result": "0.15 ± 0.04", "unit": "%ID/g"}, {"measurement": "tissue uptake at 1 h", "setting": "large intestine, 100 ug, blocked (100 µg GRPR antagonist co-injected), read-out: Large intestine uptake", "result": "0.22 ± 0.04", "unit": "%ID/g"}, {"measurement": "tissue uptake at 1 h", "setting": "[3]", "result": "0.49 ± 0.31", "unit": "%ID/g"}, {"measurement": "tissue uptake at 4 h", "setting": "[3]", "result": "0.68 ± 0.12", "unit": "%ID/g"}, {"measurement": "tissue uptake at 24 h", "setting": "[3]", "result": "0.43 ± 0.13", "unit": "%ID/g"}, {"measurement": "tissue uptake at 72 h", "setting": "[3]", "result": "0.32 ± 0.14", "unit": "%ID/g"}, {"measurement": "tissue uptake at 120 h", "setting": "[3]", "result": "0.05 ± 0.02", "unit": "%ID/g"}, {"measurement": "tissue uptake at 1 h", "setting": "liver, 100 ug, blocked (100 µg GRPR antagonist co-injected), read-out: Liver uptake", "result": "0.27 ± 0.03", "unit": "%ID/g"}, {"measurement": "tissue uptake at 1 h", "setting": "[4]", "result": "0.47 ± 0.19", "unit": "%ID/g"}, {"measurement": "tissue uptake at 4 h", "setting": "[4]", "result": "0.27 ± 0.06", "unit": "%ID/g"}, {"measurement": "tissue uptake at 24 h", "setting": "[4]", "result": "0.14 ± 0.07", "unit": "%ID/g"}, {"measurement": "tissue uptake at 72 h", "setting": "[4]", "result": "0.06 ± 0.01", "unit": "%ID/g"}, {"measurement": "tissue uptake at 120 h", "setting": "[4]", "result": "0.07 ± 0.02", "unit": "%ID/g"}, {"measurement": "tissue uptake at 1 h", "setting": "lungs, 100 ug, blocked (100 µg GRPR antagonist co-injected), read-out: Lungs uptake", "result": "0.54 ± 0.17", "unit": "%ID/g"}, {"measurement": "tissue uptake at 1 h", "setting": "[5]", "result": "0.57 ± 0.18", "unit": "%ID/g"}, {"measurement": "tissue uptake at 4 h", "setting": "[5]", "result": "0.15 ± 0.04", "unit": "%ID/g"}, {"measurement": "tissue uptake at 24 h", "setting": "[5]", "result": "0.06 ± 0.02", "unit": "%ID/g"}, {"measurement": "tissue uptake at 72 h", "setting": "[5]", "result": "0.03 ± 0.01", "unit": "%ID/g"}, {"measurement": "tissue uptake at 120 h", "setting": "[5]", "result": 0.02, "unit": "%ID/g"}, {"measurement": "tissue uptake at 1 h", "setting": "muscle, 100 ug, blocked (100 µg GRPR antagonist co-injected), read-out: Muscle uptake", "result": "0.15 ± 0.05", "unit": "%ID/g"}, {"measurement": "tissue uptake at 1 h", "setting": "[6]", "result": "0.13 ± 0.05", "unit": "%ID/g"}, {"measurement": "tissue uptake at 4 h", "setting": "[6]", "result": "0.05 ± 0.01", "unit": "%ID/g"}, {"measurement": "tissue uptake at 24 h", "setting": "[6]", "result": 0.01, "unit": "%ID/g"}, {"measurement": "tissue uptake at 72 h", "setting": "[6]", "result": 0.01, "unit": "%ID/g"}, {"measurement": "tissue uptake at 1 h", "setting": "pancreas, 100 ug, blocked (100 µg GRPR antagonist co-injected), read-out: Pancreas uptake", "result": "0.51 ± 0.12", "unit": "%ID/g"}, {"measurement": "tissue uptake at 1 h", "setting": "[7]", "result": "2.64 ± 0.63", "unit": "%ID/g"}, {"measurement": "tissue uptake at 4 h", "setting": "[7]", "result": "1.71 ± 0.08", "unit": "%ID/g"}, {"measurement": "tissue uptake at 24 h", "setting": "[7]", "result": "1.04 ± 0.19", "unit": "%ID/g"}, {"measurement": "tissue uptake at 72 h", "setting": "[7]", "result": "0.35 ± 0.08", "unit": "%ID/g"}, {"measurement": "tissue uptake at 120 h", "setting": "[7]", "result": "0.11 ± 0.01", "unit": "%ID/g"}, {"measurement": "tissue uptake at 1 h", "setting": "small intestine, 100 ug, blocked (100 µg GRPR antagonist co-injected), read-out: Small intestine uptake", "result": "0.23 ± 0.06", "unit": "%ID/g"}, {"measurement": "tissue uptake at 1 h", "setting": "[8]", "result": "0.67 ± 0.16", "unit": "%ID/g"}, {"measurement": "tissue uptake at 4 h", "setting": "[8]", "result": "0.26 ± 0.04", "unit": "%ID/g"}, {"measurement": "tissue uptake at 24 h", "setting": "[8]", "result": "0.13 ± 0.01", "unit": "%ID/g"}, {"measurement": "tissue uptake at 72 h", "setting": "[8]", "result": "0.04 ± 0.01", "unit": "%ID/g"}, {"measurement": "tissue uptake at 120 h", "setting": "[8]", "result": "0.02 ± 0.01", "unit": "%ID/g"}, {"measurement": "tissue uptake at 1 h", "setting": "spleen, 100 ug, blocked (100 µg GRPR antagonist co-injected), read-out: Spleen uptake", "result": "0.2 ± 0.06", "unit": "%ID/g"}, {"measurement": "tissue uptake at 1 h", "setting": "[9]", "result": "0.46 ± 0.2", "unit": "%ID/g"}, {"measurement": "tissue uptake at 4 h", "setting": "[9]", "result": "0.13 ± 0.03", "unit": "%ID/g"}, {"measurement": "tissue uptake at 24 h", "setting": "[9]", "result": "0.09 ± 0.02", "unit": "%ID/g"}, {"measurement": "tissue uptake at 72 h", "setting": "[9]", "result": "0.07 ± 0.02", "unit": "%ID/g"}, {"measurement": "tissue uptake at 120 h", "setting": "[9]", "result": "0.05 ± 0.01", "unit": "%ID/g"}, {"measurement": "tissue uptake at 1 h", "setting": "stomach, 100 ug, blocked (100 µg GRPR antagonist co-injected), read-out: Stomach uptake", "result": "0.08 ± 0.03", "unit": "%ID/g"}, {"measurement": "tissue uptake at 1 h", "setting": "[10]", "result": "0.29 ± 0.06", "unit": "%ID/g"}, {"measurement": "tissue uptake at 4 h", "setting": "[10]", "result": "1.2 ± 1.55", "unit": "%ID/g"}, {"measurement": "tissue uptake at 24 h", "setting": "[10]", "result": "0.12 ± 0.05", "unit": "%ID/g"}, {"measurement": "tissue uptake at 72 h", "setting": "[10]", "result": "0.07 ± 0.02", "unit": "%ID/g"}, {"measurement": "tissue uptake at 120 h", "setting": "[10]", "result": "0.03 ± 0.01", "unit": "%ID/g"}, {"measurement": "tissue uptake at 1 h", "setting": "testes, 100 ug, blocked (100 µg GRPR antagonist co-injected), read-out: Testes uptake", "result": "0.14 ± 0.05", "unit": "%ID/g"}, {"measurement": "tissue uptake at 1 h", "setting": "[11]", "result": "0.18 ± 0.03", "unit": "%ID/g"}, {"measurement": "tissue uptake at 4 h", "setting": "[11]", "result": "0.04 ± 0.01", "unit": "%ID/g"}, {"measurement": "tissue uptake at 24 h", "setting": "[11]", "result": 0.02, "unit": "%ID/g"}, {"measurement": "tissue uptake at 72 h", "setting": "[11]", "result": "0.02 ± 0.01", "unit": "%ID/g"}, {"measurement": "tissue uptake at 120 h", "setting": "[11]", "result": "0.01 ± 0.01", "unit": "%ID/g"}]}]}
